Assay results as given in ChEMBL document CHEMBL3137667, “[Drug-induced liver injury; fourteenth updated edition of the bibliographic database of liver injuries and related drugs]” (Gastroenterol Clin Biol, 2004).

How the values were obtained:
[1] = Proposed mechanism(s) of liver damage. [column 'MEC' in source]; details: human
[2] = Highest frequency of moderate liver toxicity observed during clinical trials, expressed as a percentage. [column '% BIOL' in source]; details: human
[3] = Highest frequency of acute liver toxicity observed during clinical trials, expressed as a percentage. [column '% AIGUE' in source]; details: human
[4] = human
[5] = human; remark: listed apart in the source
[6] = Comments (NB not yet translated). [column 'COMMENTAIRES' in source]; details: human
[7] = human, serum, 4383 h
[8] = human; remark: listed apart in the source
[9] = human; remark: listed apart in the source
[10] = human; remark: listed apart in the source
[11] = human; remark: listed apart in the source
[12] = human; remark: listed apart in the source
[13] = human, serum
[14] = human, serum; remark: listed apart in the source
[15] = human; remark: listed apart in the source
[16] = human; remark: listed apart in the source
[17] = Times to onset, minimal and maximal, observed in the indexed observations. [column 'DELAI' in source]; details: human
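For Hepatotoxicity (association with vascular disease) in this document: count of indexed literature references reporting vascular liver injury in humans, e.g. peliosis hepatitis, hepatic veno-occlusive disease or Budd-Chiari syndrome.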
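For Hepatotoxicity (benign tumour) in this document: value is a count of indexed literature references citing a benign tumour confirmed by histopathology.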
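For Hepatotoxicity (choleostasis) in this document: human cholestatic liver injury, shown by histopathology or by peak ALT or AST elevation over alkaline phosphatase ratio below 2, value counts indexed literature reports.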
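For Hepatotoxicity (chronic liver disease) in this document: chronic liver injury confirmed by histopathology or persistently raised serum aminotransferase activity beyond 6 months, value given as the count of indexed literature references.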
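For Hepatotoxicity (cirrhosis) in this document: value is a count of indexed literature references reporting cirrhosis confirmed by histopathology.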
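For Hepatotoxicity (cytolytic) in this document: human cytolytic liver injury, shown by histopathology or by a ratio above 5 of peak ALT or AST elevation to alkaline phosphatase elevation, value counts indexed references.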
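For Hepatotoxicity (granulomatous hepatitis) in this document: value is a count of indexed literature references reporting granulomatous liver disease confirmed by histopathology.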
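For Hepatotoxicity (malignant tumour) in this document: malignant tumour confirmed by histopathology, value gives the count of indexed literature references reporting it.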
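For Hepatotoxicity (severe hepatitis) in this document: human clinical data: severe hepatitis, meaning potentially life-threatening liver failure or clinically observed cases, the value counts how many indexed literature references report it.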
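For Hepatotoxicity (steatosis) in this document: steatosis confirmed by histopathology, value is the count of indexed references.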

Compound	Hepatotoxicity (mechanism) [1]	Hepatotoxicity (moderate) [2] [%]	Hepatotoxicity (acute) [3] [%]	Hepatotoxicity (association with vascular disease) [4]	Hepatotoxicity (granulomatous hepatitis) [5]	Hepatotoxicity (comment) [6]	Hepatotoxicity (chronic liver disease) [7]	Hepatotoxicity (cirrhosis) [8]	Hepatotoxicity (severe hepatitis) [9]	Hepatotoxicity (benign tumour) [10]	Hepatotoxicity (choleostasis) [11]	Hepatotoxicity (malignant tumour) [12]	Hepatotoxicity (acute) [13]	Hepatotoxicity (moderate) [14]	Hepatotoxicity (steatosis) [15]	Hepatotoxicity (cytolytic) [16]	Hepatotoxicity (time to onset) [17]	other results
CC(=O)O[C@H]1C[C@@]2(C)[C@@H](C[C@@H](O)[C@H]3[C@@]4(C)CC[C@@H](O)[C@@H](C)[C@@H]4CC[C@@]32C)/C1=C(\CCC=C(C)C)C(=O)O [FUSIDIC ACID]	Dose-dependant	50	34	0	0	HYPERBILIRUBINEMIE	0	0	0	0	2	0	19	12	0	0	2 days - 2 months	
CC(C)c1c(C(=O)Nc2ccccc2)c(-c2ccccc2)c(-c2ccc(F)cc2)n1CC[C@@H](O)C[C@@H](O)CC(=O)O [ATORVASTATIN]	Allergic	13.6	1.8	0	0	AC_ANTI-N/-ML	1	1	1	0	6	0	10	36	0	5	6 days - 7 months	
CCCN(CCC)C(=O)Cc1c(-c2ccc(Cl)cc2)nc2ccc(Cl)cn12 [ALPIDEM]	Allergic	0	0	0	0	AC_ANTI-N	0	0	5	0	0	0	5	0	0	4	1 month - 8 months	
COc1c(N2CCNC(C)C2)c(F)cc2c(=O)c(C(=O)O)cn(C3CC3)c12 (stereo not drawn) [GATIFLOXACIN]	Allergic	6.5	0	0	0	CHOLESTASE_PROLONGEE DUCTOPENIE	1	0	1	0	2	0	3	18	2	2	2 days - 8 days	
COCCCC/C(=N\OCCN)c1ccc(C(F)(F)F)cc1 [FLUVOXAMINE]	Dose-dependant	0	0	0	0	SURDOSAGE	0	0	0	0	2	0	3	5	0	1	4 days - 4 months	
Nc1ccc(S(=O)(=O)Nc2ncccn2)cc1 [SULFADIAZINE]				0		CHOLESTASE_PROLONGEE	0	0		0		0	8	2	0		1 week - 2 months	Hepatotoxicity (mechanism) ([1]; Liver): Allergic, Reactive metabolite; Hepatotoxicity (moderate) ([2]; Liver): 2.7%; Hepatotoxicity (acute) ([3]; Liver): 0%; Hepatotoxicity (granulomatous hepatitis) ([5]; Liver): 0; Hepatotoxicity (severe hepatitis) ([9]; Liver): 1; Hepatotoxicity (choleostasis) ([11]; Liver): 1; Hepatotoxicity (cytolytic) ([16]; Liver): 3
CN(C)CCCN1c2ccccc2Sc2ccccc21 [PROMAZINE]	Allergic	0	0	0	0	RC/CHLORPROMAZINE	0	0	0	0	6	0	6	1	0	0	2 days - 2 months	
CC1=C(C(=O)O)N2C(=O)[C@@H](NC(=O)[C@H](N)C3=CCC=CC3)[C@H]2SC1 [CEPHRADINE]	Allergic	24.3	0	0	0	CHOLECYSTITE_A_EOSINOPHILES	0	0	0	0	1	0	1	1	0	0	3 weeks	
GEMTUZUMAB OZOGAMICIN	Dose-dependant	47.8	38.3	19	0	MVO	0	0	1	0	2	0	11	7	0	10	2 days - 6 months	
